The values below come from patent publication US6020342A, “Fused imidazo[1,2-A]pyridines” (Shinnippon Pharmaceutical, Inc., priority 1995, dated 2000).

For this experiment, the target named is T1, H^+ /K^+ -ATPase (Sus scrofa, UniProt P19156).
T1 construct: a microsome fraction prepared from porcine gastric mucosa was used as a standard enzyme; from tissue; host or cells: porcine gastric mucosa, microsome fraction
T1 sequence (P19156 2-1034 limits assumed): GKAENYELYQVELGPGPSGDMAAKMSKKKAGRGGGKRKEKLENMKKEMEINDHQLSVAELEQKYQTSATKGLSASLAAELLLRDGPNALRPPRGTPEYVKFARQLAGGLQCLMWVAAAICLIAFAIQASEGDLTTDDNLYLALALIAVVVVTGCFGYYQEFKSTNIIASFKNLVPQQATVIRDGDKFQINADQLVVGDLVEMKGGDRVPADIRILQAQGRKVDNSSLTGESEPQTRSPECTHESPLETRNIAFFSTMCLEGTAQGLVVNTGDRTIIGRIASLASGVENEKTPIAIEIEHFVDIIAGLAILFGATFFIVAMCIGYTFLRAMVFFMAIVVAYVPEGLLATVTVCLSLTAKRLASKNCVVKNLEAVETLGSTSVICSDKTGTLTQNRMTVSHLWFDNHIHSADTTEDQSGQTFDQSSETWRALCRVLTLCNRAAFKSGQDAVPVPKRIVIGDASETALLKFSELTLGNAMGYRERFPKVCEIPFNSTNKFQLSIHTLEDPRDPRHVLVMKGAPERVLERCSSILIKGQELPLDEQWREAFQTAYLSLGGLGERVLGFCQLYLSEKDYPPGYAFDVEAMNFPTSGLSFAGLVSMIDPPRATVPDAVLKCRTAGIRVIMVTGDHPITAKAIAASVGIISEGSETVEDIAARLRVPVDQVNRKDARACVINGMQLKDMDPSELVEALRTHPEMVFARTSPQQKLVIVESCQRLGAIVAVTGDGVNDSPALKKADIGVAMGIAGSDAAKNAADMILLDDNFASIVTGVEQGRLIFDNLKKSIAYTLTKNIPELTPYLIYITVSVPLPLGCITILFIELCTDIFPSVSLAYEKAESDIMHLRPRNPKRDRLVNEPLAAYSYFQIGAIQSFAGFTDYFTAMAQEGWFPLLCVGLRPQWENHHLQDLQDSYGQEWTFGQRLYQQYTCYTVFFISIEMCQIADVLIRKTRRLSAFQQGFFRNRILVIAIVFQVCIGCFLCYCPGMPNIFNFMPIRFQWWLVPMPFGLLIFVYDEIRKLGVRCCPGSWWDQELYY
T1 sequence (P18434 whole entry partner): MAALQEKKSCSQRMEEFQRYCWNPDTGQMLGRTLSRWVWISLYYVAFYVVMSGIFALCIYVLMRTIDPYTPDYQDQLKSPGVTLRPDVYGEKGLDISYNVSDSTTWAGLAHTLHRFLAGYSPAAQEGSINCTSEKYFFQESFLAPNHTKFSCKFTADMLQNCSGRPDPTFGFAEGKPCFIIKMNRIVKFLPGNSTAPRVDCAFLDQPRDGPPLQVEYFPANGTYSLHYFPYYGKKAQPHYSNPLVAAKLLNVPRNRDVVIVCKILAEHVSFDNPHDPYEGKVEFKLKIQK
Kind of experiment: Inhibitory Action on H^+ /K^+ -ATPase Activity. Type of experiment: biochemical. Particulars: microsome fraction from porcine gastric mucosa, pH7.4, 37° C., 30 min preincubation, 15 min reaction. The protocol:
Inhibitory Action on H^+ /K^+ -ATPase Activity
According to the method of Hongo et al. [The Japanese Journal of Pharmacology, 52, p295, (1990)], a microsome fraction prepared from porcine gastric mucosa was used as a standard enzyme. The standard enzyme (10-20lig protein) and the test compound (0.1-100 μM) dissolved in dimethylsulfoxide was incubated at 37° C. for 30 minutes in the 50 mM Tris-acetate buffer (pH7.4, containing 2 mM magnesium chloride, 5 mM potassium chloride). The enzyme reaction was started by adding adenosinetriphosphate (ATP). Tris at the final concentration of 2 mM, and the reaction was kept at 37° C. for 15 minutes. The reaction was stopped by adding chilled 10% trichloroacetic acid. Inorganic phosphate released during the reaction was calorimetrically determined according to the method of Fiske-Subbarow [The Journal of Biological Chemistry, 66, p375, (1925)]. H^+ /K^+ -ATPase activity was determined by the difference of the enzyme activities under the conditions with or without potassium chloride. The inhibitory activities of test compounds were determined as the 50% inhibitory concentration (IC50 value) from reaction-concentration curve, and the results are shown in Table 3.
On to `Cc1ccccc1-c1nc2c3ccccc3c(CCC(C)C)cn2c1N` [Compound 15, 3-Amino-6-isopentyl-2-(2-methylphenyl)imidazo[2,1-a]isoquinoline], for which the IC50 (in general, the concentration that inhibits the measured activity by half) was found to be 3.7 µM. This counts as single-digit micromolar. In the case of `COc1ccc(-c2cn3c(N)c(-c4ccccc4C)nc3c3ccccc23)cc1` [Compound 21, 3-Amino-6-(4-methoxyphenyl)-2-(2-methylphenyl)imidazo[2,1-a]isoquinoline] it was 7.4 µM; in that of `Cc1ccccc1-c1nc2c3cc(O)ccc3ccn2c1N` [Compound 22, 3-Amino-9-hydroxy-2-(2-methylphenyl)imidazo[2,1-a]isoquinoline], 1.9 µM; in that of `Cc1ccccc1-c1nc2c3ccccc3c(OCc3ccccc3)cn2c1N` [Compound 38, 3-Amino-6-benzyloxy-2-(2-methylphenyl)imidazo[2,1-a]isoquinoline], 4.8 µM. In the case of `CCN(CC)c1cccc2c1ccn1c(N)c(-c3ccccc3C)nc21` [Compound 54, 3-Amino-7-diethylamino-2-(2-methylphenyl)imidazo[2,1-a]isoquinoline] it was 1 µM.

Consider `Cc1cc(-c2nc3c4ccccc4ccn3c2N)c(C)s1` [Compound 83, 3-Amino-2-(2,5-dimethyl-3-thienyl)imidazo[2,1-a]isoquinoline], for which the 50% inhibitory concentration (IC50) was 5.6 µM. Compared with the last compound, the IC50 is about 5.6-fold higher. In the case of `Cc1ccccc1-c1nc2n(c1N)C(C)(C)Cc1ccccc1-2` [Compound 104, 3-Amino-5,5-dimethyl-2-(2-methylphenyl)-5,6-dihydroimidazo[2,1-a]isoquinoline] it was 12 µM. With `Cc1cc(O)ccc1-c1nc2n(c1N)CCc1ccccc1-2` [Compound 107, 3-Amino-2-(4-hydroxy-2-methylphenyl)-5,6-dihydroimidazo[2,1-a]isoquinoline], it took 33 µM to reach half-maximal inhibition (IC50). In the case of `CC(=O)N(Cc1ccc(C)cc1)c1c(-c2ccccc2C)nc2c3ccccc3ccn12` [Compound 151, 3-[N-Acetyl-N-(4-methylbenzyl)amino]-2-(2-methylphenyl)imidazo[2,1-a]isoquinoline] it was 7.8 µM; in that of `CCCc1cccc2c1ccn1c(NCC)c(-c3ccccc3C)nc21` [Compound 163, 3-Ethylamino-2-(2-methylphenyl)-7-propylimidazo[2,1-a]isoquinoline], 4.6 µM; in that of `CCNc1c(-c2ccccc2C)nc2c3cccc(OCc4ccccc4)c3ccn12` [Compound 169, 7-Benzyloxy-3-ethylamino-2-(2-methylphenyl)imidazo[2,1-a]isoquinoline], 5.8 µM.

Consider `Cc1ccc(-c2nc3c4ccccc4ccn3c2NCCC(C)C)c(C)c1` [Compound 189, 3-Isopentylamino-2-(2,4-dimethylphenyl)imidazo[2,1-a]isoquinoline], for which the half-maximal inhibitory concentration (IC50) came to 6.8 µM. The result for `CCCCCCNc1c(-c2ccccc2C)nc2c3ccccc3ccn12` [Compound 191, 3-Hexylamino-2-(2-methylphenyl)imidazo[2,1-a]isoquinoline] reads 5.2 µM. `Cc1ccccc1-c1nc2c3ccccc3ccn2c1NC(C)c1ccccc1` (stereo not drawn) [Compound 192, 2-(2-Methylphenyl)-3-[(1-phenylethyl)amino]imidazo[2,1-a]isoquinoline]: the concentration for half-maximal inhibition (IC50) turned out to be 4.4 µM. Turning to `Cc1ccccc1-c1nc2c3ccccc3ccn2c1NCc1ccc2ccccc2c1Br` [Compound 195], the IC50 was found to be 8.8 µM.

Compound `CCN(CC)c1c(-c2ccccc2C)nc2c3cccc(Br)c3ccn12` [Compound 200, 7-Bromo-3-diethylamino-2-(2-methylphenyl)imidazo[2,1-a]isoquinoline] had a half-inhibitory concentration (IC50) of 1.2 µM. `CCN(CCCl)c1c(-c2ccccc2C)nc2c3ccccc3ccn12` [Compound 202, 3-[N-(2-Chloroethyl)-N-ethylamino]-2-(2-methylphenyl)imidazo[2,1-a]isoquinoline] showed an IC50 of 9.8 µM. Regarding `CCCN(CC)c1c(-c2ccccc2F)nc2c3ccccc3ccn12` [Compound 206, 3-(N-Ethyl-N-propylamino)-2-(2-fluorophenyl)imidazo[2,1-a]isoquinoline], the half-inhibitory concentration (IC50) is 2.3 µM.
